Laboratory results reported in PubChem BioAssay (NCI).
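96-well plates; 48 h exposure; 5 concentrations. Endpoints by linear interpolation between flanking doses. Not reached: highest tested concentration assigned. GI50 marks 50% less growth. At the TGI there is no net growth.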

Tests used:
Experiment in all cases: NCI anticancer screen, dose series, 48 h
[1] = tested on: MCF7 breast
[2] = tested on: MOLT-4 leukemia
[3] = tested on: RXF 393 renal
[4] = tested on: MDA-MB-435
[5] = tested on: MDA-MB-231 breast
[6] = tested on: NCI-H226 lung
[7] = tested on: UO-31 renal
[8] = tested on: KM12 colon
[9] = tested on: OVCAR-8 ovarian
[10] = tested on: CAKI-1 renal
[11] = tested on: SNB-19 CNS
[12] = tested on: MALME-3M melanoma
[13] = tested on: COLO 205 colon
[14] = tested on: T-47D breast
[15] = tested on: BT-549 breast
[16] = tested on: U251 CNS
[17] = tested on: 786-0 renal
[18] = tested on: M14 melanoma
[19] = tested on: RPMI-8226 leukemia
[20] = tested on: SF-539 CNS
[21] = tested on: UACC-257 melanoma
[22] = tested on: NCI-H522 lung
[23] = tested on: SK-MEL-5 melanoma
[24] = tested on: NCI-H460 lung
[25] = tested on: UACC-62 melanoma
[26] = tested on: LOX IMVI melanoma
[27] = tested on: A549 NSCLC
[28] = tested on: SK-OV-3 ovarian
[29] = tested on: SF-295 CNS
[30] = tested on: SF-268 CNS
[31] = tested on: HCT-116 colon
[32] = tested on: K-562 leukemia
[33] = tested on: OVCAR-3 ovarian
[34] = tested on: SW-620 colon
[35] = tested on: HOP-62 NSCLC
[36] = tested on: IGROV1 ovarian
[37] = tested on: HCT-15 colon
[38] = tested on: PC-3 prostate
[39] = tested on: TK-10 renal
[40] = tested on: SK-MEL-28 melanoma
[41] = tested on: SR leukemia
[42] = tested on: HOP-92 NSCLC
[43] = tested on: HT29 colon
[44] = tested on: OVCAR-5 ovarian
[45] = tested on: EKVX NSCLC
[46] = tested on: NCI-H23 lung
[47] = tested on: NCI/ADR-RES ovarian
[48] = tested on: SK-MEL-2 melanoma
[49] = tested on: A498 renal
[50] = tested on: OVCAR-4 ovarian
[51] = tested on: HL-60(TB) leukemia
[52] = tested on: SN12C renal
[53] = tested on: DU-145 prostate
[54] = tested on: HS 578T breast
[55] = tested on: HCC-2998 colon
[56] = tested on: CCRF-CEM leukemia
[57] = tested on: SNB-75 CNS
[58] = tested on: ACHN renal

O=C(/C=C/c1ccc2ccccc2c1)NCc1ccc(C(=O)NCc2ccccc2)cc1
TGI [1]: > 100 µM
TGI [2]: > 100 µM
TGI [3]: > 100 µM
TGI [4]: > 100 µM
TGI [5]: > 100 µM
TGI [6]: 86.8 µM
TGI [7]: > 100 µM
TGI [8]: > 100 µM
TGI [9]: > 100 µM
TGI [10]: > 73.1 µM
TGI [11]: > 100 µM
TGI [12]: > 100 µM
TGI [13]: > 100 µM
TGI [14]: > 89.6 µM
TGI [15]: > 100 µM
TGI [16]: > 100 µM
TGI [17]: > 100 µM
TGI [18]: > 100 µM
TGI [19]: > 100 µM
TGI [20]: > 100 µM
TGI [21]: > 100 µM
TGI [22]: > 100 µM
TGI [23]: > 100 µM
TGI [24]: > 100 µM
TGI [25]: > 100 µM
TGI [26]: > 100 µM
TGI [27]: > 100 µM
TGI [28]: > 100 µM
TGI [29]: > 100 µM
TGI [30]: > 100 µM
TGI [31]: > 100 µM
TGI [32]: > 31.6 µM
TGI [33]: > 100 µM
TGI [34]: > 100 µM
TGI [35]: 52.9 µM
TGI [36]: > 100 µM
TGI [37]: > 100 µM
TGI [38]: > 100 µM
TGI [39]: > 100 µM
TGI [40]: > 100 µM
TGI [41]: > 100 µM
TGI [42]: > 100 µM
TGI [43]: > 100 µM
TGI [44]: > 100 µM
TGI [45]: > 100 µM
TGI [46]: > 100 µM
TGI [47]: > 100 µM
TGI [48]: > 100 µM
TGI [49]: > 100 µM
TGI [50]: > 100 µM
TGI [51]: 38.8 µM
TGI [52]: > 100 µM
TGI [53]: > 100 µM
TGI [54]: > 100 µM
TGI [55]: > 100 µM
TGI [56]: > 100 µM
TGI [57]: 71.1 µM
TGI [58]: > 100 µM

COc1cc(-c2nccn2-c2ccc3ccccc3c2)cc(OC)c1OC
GI50 [1]: < 0.013 µM
TGI [1]: 15.8 µM
GI50 [2]: 0.0708 µM
TGI [2]: 17 µM
GI50 [3]: 0.254 µM
TGI [3]: 28.7 µM
TGI [4]: 0.0511 µM
GI50 [5]: 0.333 µM
TGI [5]: 22.6 µM
GI50 [6]: 0.206 µM
TGI [6]: 20.3 µM
GI50 [7]: 1.65 µM
TGI [7]: > 62.6 µM
GI50 [8]: < 0.0166 µM
TGI [8]: 18.2 µM
GI50 [9]: 0.489 µM
TGI [9]: > 88 µM
GI50 [10]: < 0.0268 µM
TGI [10]: 47 µM
GI50 [11]: 0.0985 µM
TGI [11]: 24.3 µM
GI50 [12]: 16 µM
TGI [12]: 47.6 µM
GI50 [13]: 0.0402 µM
TGI [13]: 2.44 µM
GI50 [14]: 17.7 µM
TGI [14]: 94.8 µM
GI50 [15]: 0.0995 µM
TGI [15]: 15.6 µM
GI50 [16]: 0.0547 µM
TGI [16]: 16.7 µM
GI50 [17]: 0.0564 µM
TGI [17]: 12.5 µM
GI50 [18]: 0.0613 µM
TGI [18]: 12.7 µM
GI50 [19]: 0.19 µM
TGI [19]: 17.5 µM
GI50 [20]: 0.0466 µM
TGI [20]: 0.625 µM
GI50 [21]: 12.9 µM
TGI [21]: 41.3 µM
GI50 [22]: < 0.0218 µM
TGI [22]: 20.4 µM
GI50 [23]: < 0.0195 µM
TGI [23]: 4.45 µM
GI50 [24]: < 0.0215 µM
TGI [24]: 11.7 µM
GI50 [25]: < 0.0177 µM
TGI [25]: 14.5 µM
GI50 [26]: 1.53 µM
TGI [26]: 19 µM
GI50 [27]: 0.74 µM
TGI [27]: > 65.5 µM
GI50 [28]: 0.99 µM
TGI [28]: 74 µM
GI50 [29]: < 0.0159 µM
TGI [29]: 15.5 µM
GI50 [30]: 0.335 µM
TGI [30]: 18.9 µM
GI50 [31]: 0.04 µM
TGI [31]: 11.7 µM
GI50 [32]: < 0.0156 µM
TGI [32]: > 32.3 µM
GI50 [33]: < 0.0176 µM
TGI [33]: 1.61 µM
GI50 [34]: 0.024 µM
TGI [34]: 25.2 µM
GI50 [35]: 0.0675 µM
TGI [35]: 18.3 µM
GI50 [36]: 1.11 µM
TGI [36]: > 41.2 µM
GI50 [37]: < 0.0226 µM
TGI [37]: 12.6 µM
GI50 [38]: 0.0453 µM
TGI [38]: > 100 µM
GI50 [39]: 2.94 µM
TGI [39]: > 87.6 µM
GI50 [41]: < 0.0147 µM
TGI [41]: 7.06 µM
GI50 [42]: 10.1 µM
TGI [42]: 31.4 µM
GI50 [43]: < 0.0196 µM
TGI [43]: 14 µM
GI50 [44]: 0.469 µM
TGI [44]: 24.2 µM
GI50 [45]: 0.379 µM
TGI [45]: 48.1 µM
GI50 [46]: 0.0789 µM
TGI [46]: 5.53 µM
TGI [47]: 0.0273 µM
GI50 [48]: 6.2 µM
TGI [48]: > 50.3 µM
GI50 [49]: 0.0778 µM
TGI [49]: 1.36 µM
GI50 [50]: 2.04 µM
TGI [50]: 44.6 µM
GI50 [51]: < 0.0176 µM
TGI [51]: 1.33 µM
GI50 [52]: 0.666 µM
TGI [52]: 22.6 µM
GI50 [53]: 0.0844 µM
TGI [53]: > 32.3 µM
GI50 [54]: 0.0668 µM
TGI [54]: 71.5 µM
GI50 [55]: < 0.0367 µM
TGI [55]: 1.66 µM
GI50 [56]: 0.048 µM
TGI [56]: 32.5 µM
GI50 [57]: 0.0605 µM
TGI [57]: 24.8 µM
GI50 [58]: 2.59 µM
TGI [58]: 49.6 µM
